# Data published in the supplement of paper PMC10307832.
# Key:
# Assay in all cases: relative viability (nuclei count vs DMSO), 5 days (fraction); higher = more cells survive
# Apatinib + Trametinib = compound: N#CC1(c2ccc(NC(=O)c3cccnc3NCc3ccncc3)cc2)CCCC1 [Apatinib] + CC(=O)Nc1cccc(-n2c(=O)n(C3CC3)c(=O)c3c(Nc4ccc(I)cc4F)n(C)c(=O)c(C)c32)c1 [Trametinib] (partner 0.02 µM)
# In short: (§1)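 Lung cancer cell lines were pin-tool dosed in 1536-well plates on the day after seeding, with either a lone drug or a fixed anchor-drug dose plus five library-drug doses (not always all listed) in √10 steps. Nuclei were counted on 4× images after 5 days. Relative viability is the ratio of treated-well to vehicle-well nuclei counts, with each value a median of duplicate plates.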
# Apatinib + Pemetrexed = compound: N#CC1(c2ccc(NC(=O)c3cccnc3NCc3ccncc3)cc2)CCCC1 [Apatinib] + Nc1nc2[nH]cc(CCc3ccc(C(=O)N[C@@H](CCC(=O)O)C(=O)O)cc3)c2c(=O)[nH]1 [Pemetrexed] (partner 0.2 µM)
# In short: as §1
# Apatinib + Foretinib = compound: N#CC1(c2ccc(NC(=O)c3cccnc3NCc3ccncc3)cc2)CCCC1 [Apatinib] + COc1cc2c(Oc3ccc(NC(=O)C4(C(=O)Nc5ccc(F)cc5)CC4)cc3F)ccnc2cc1OCCCN1CCOCC1 [Foretinib] (partner 0.25 µM)
# In short: as §1
# Metformin + Pemetrexed = compound: CN(C)C(=N)NC(=N)N [Metformin] + Nc1nc2[nH]cc(CCc3ccc(C(=O)N[C@@H](CCC(=O)O)C(=O)O)cc3)c2c(=O)[nH]1 [Pemetrexed] (partner 0.2 µM)
# In short: as §1
Cell Line,relative viability (Apatinib + Trametinib; first compound 0.08 µM),relative viability (Apatinib + Trametinib; first compound 0.253 µM),relative viability (Apatinib + Trametinib; first compound 0.8 µM),relative viability (Apatinib + Trametinib; first compound 2.53 µM),relative viability (Apatinib + Trametinib; first compound 8 µM),relative viability (Apatinib + Pemetrexed; first compound 0.08 µM),relative viability (Apatinib + Pemetrexed; first compound 0.253 µM),relative viability (Apatinib + Pemetrexed; first compound 0.8 µM),relative viability (Apatinib + Pemetrexed; first compound 2.53 µM),relative viability (Apatinib + Pemetrexed; first compound 8 µM),relative viability (Apatinib + Foretinib; first compound 0.08 µM),relative viability (Apatinib + Foretinib; first compound 0.253 µM),relative viability (Apatinib + Foretinib; first compound 0.8 µM),relative viability (Apatinib + Foretinib; first compound 2.53 µM),relative viability (Apatinib + Foretinib; first compound 8 µM),relative viability (Metformin + Pemetrexed; first compound 31.62 µM),relative viability (Metformin + Pemetrexed; first compound 100 µM),relative viability (Metformin + Pemetrexed; first compound 316.23 µM),relative viability (Metformin + Pemetrexed; first compound 1000 µM),relative viability (Metformin + Pemetrexed; first compound 10 µM)
EKVX,0.419,0.362,0.32,0.392,0.251,0.434,0.357,0.379,0.342,0.346,0.71,0.872,0.951,0.615,0.775,0.301,0.417,0.316,0.294,–
NCI-H1944,0.395,0.429,0.318,0.403,0.29,0.687,0.562,0.501,0.456,0.51,0.869,0.942,0.691,0.807,0.603,0.75,0.625,0.687,0.576,0.505
EPLC-272H,0.297,0.264,0.301,0.321,0.234,0.275,0.333,0.359,0.322,0.199,0.773,–,0.802,0.671,0.394,0.345,0.429,0.394,0.39,0.467
NCI-H1666,0.843,0.942,0.783,0.81,0.681,0.874,0.858,0.842,0.802,0.672,0.953,0.998,0.942,0.943,1.03,0.862,0.854,0.871,0.928,0.825
NCI-H322M,0.506,0.651,0.494,0.545,0.425,0.605,0.633,0.623,0.593,0.54,1.02,0.857,0.944,0.984,0.88,0.621,0.644,0.606,0.594,0.68
NCI-H1437,0.526,0.532,0.433,0.314,0.348,0.328,0.293,0.306,0.29,0.256,1.28,1.26,1.24,1.03,1.02,0.336,0.343,0.352,0.317,0.347
NCI-H23,0.477,0.393,0.427,0.426,0.31,0.747,0.855,0.677,0.57,0.439,1,1.21,1.05,1,1.1,0.852,0.652,0.586,0.79,0.679
NCI-H2342,0.918,0.777,0.916,0.846,0.834,0.731,0.73,0.744,0.733,0.737,1.01,1.05,1.02,0.983,0.936,1.13,0.751,0.786,0.752,–
NCI-H647,0.547,0.501,0.457,0.439,0.315,0.176,0.172,0.165,0.139,0.127,1.14,1.39,1.16,1.13,0.977,0.137,0.16,0.146,0.148,0.127
NCI-H2009,0.341,0.285,0.31,0.25,0.229,1.07,0.996,0.902,0.879,0.661,1.39,1.18,1.17,1.07,0.853,0.943,0.891,0.814,0.891,0.874
HCC-78,0.717,0.683,0.781,0.651,0.61,0.871,0.934,0.854,0.588,0.909,0.6,0.513,0.523,0.536,0.535,0.878,1.15,0.894,0.908,–
LCLC-97TM1,0.221,0.221,0.179,0.231,0.182,0.179,0.139,0.161,0.141,0.146,0.907,0.882,0.944,0.959,0.584,0.198,0.198,0.171,0.188,–
NCI-H650,0.98,0.918,1.02,0.963,1.02,1.02,0.924,0.89,0.799,0.597,1.05,1.05,1.02,0.871,0.806,0.993,0.878,0.941,1.1,0.846
HOP-62,0.411,0.395,0.36,0.422,0.394,0.333,0.31,0.289,0.244,0.16,1.15,1.18,1.11,1.1,0.848,0.336,0.276,0.215,0.321,0.239
LC-2-ad,0.94,0.926,0.907,0.678,0.659,0.248,0.299,0.259,0.267,0.233,0.935,0.89,0.904,0.947,0.868,0.313,0.271,0.263,0.25,–
NCI-H2126,0.605,0.562,0.569,0.538,0.415,0.741,0.674,0.736,0.671,0.641,1.28,1.12,1.23,0.954,0.987,0.658,0.672,0.579,0.71,0.648
